Assay results as given in patent US20230102590A1, “USE OF POLYETHER COMPOUND” (Senju Pharmaceutical Co., Ltd., priority 2020, published 2023).
Where two headings read alike, the source gives them in different places.

Key:
[1] = Basic solubility at 25° C. in ethanol, PEG 400, propylene glycol (PG) and buffer solution; solubility ratio non-aqueous solvent / buffer solution; details: for Solubility ratio of solvent with respect to buffer solution Ethanol/buffer solution / Solubility ratio of solvent with respect to buffer solution PEG400/buffer solution / Solubility ratio of solvent with respect to buffer solution PG/buffer solution: buffer pH 7.0 (pH 7.4 for cabozantinib and telmisartan; pH 6.0 for rebamipide)
Description: In this regard, the buffer solution had the following composition: • 0.2% sodium hydrogen phosphate hydrate • 0.3% sodium dihydrogen phosphate hydrate • sodium hydroxide and hydrochloric acid (suitable amount was added to adjust the pH to 7.0; however, pH was adjusted to 7.4 for cabozantinib and telmisartan).
However, the following composition was used for rebamipide instead: • 0.05% sodium hydrogen phosphate hydrate • 0.45% sodium dihydrogen phosphate hydrate • sodium hydroxide and hydrochloric acid (suitable amount was added to adjust the pH to 6.0).
Each compound was measured in the same manner described above. In the Table, the molecular weight and Log P values are reference values (or values calculated from reference values).

[2] = Description: Fujifilm Wako Pure Chemical
The poorly soluble compound content in the recovered filtrate was measured by liquid chromatography specified below (Shimadzu (Kyoto), high performance liquid chromatograph Prominence).
As the standard product of triamcinolone acetonide, a reagent from the Pharmaceutical and Medical Device Regulatory Science Society of Japan (Japan) was used. • 50 μL of sample solution and standard solution was measured by liquid chromatography under the following conditions.
Column temperature: constant temperature of about 40° C. Mobile phase A: 0.1% trifluoroacetic acid/10% acetonitrile solution Mobile phase B: 0.1% trifluoroacetic acid/90% acetonitrile solution Delivery of mobile phase: the ratio of mixture of mobile phase A and mobile phase B was changed as follows to control the linear concentration gradient.
Detergent: 50% acetonitrile solution Flow rate: 1.0 mL/min Temperature within autosampler: 5° C.
The following conditions were tested as additives to a poorly soluble compound
wherein SA+B=solubility of a poorly soluble compound in a composition comprising poloxamer 407 and PEG 4000 SB=solubility of a poorly soluble compound in a composition comprising PEG 4000, but not poloxamer 407 SA=solubility of a poorly soluble compound in a composition comprising poloxamer 407, but not PEG 4000 S0=solubility of a poorly soluble compound in a composition that comprises neither poloxamer 407 nor PEG 4000.
The solubility in a composition of PEG and poloxamer was measured in the same manner described above for additional compounds.
For cabozantinib and telmisartan, the pH of the aqueous solution with the base composition described above was changed to 7.4. For rebamipide, the aqueous solution with the base composition was as follow. • 0.05% sodium hydrogen phosphate hydrate • 0.45% sodium dihydrogen phosphate hydrate • sodium hydroxide and hydrochloric acid (suitable amount was added to adjust the pH to 6.0)
Additional compounds were measured in the same manner described above.
Cabozantinib and telmisartan were tested with a solution adjusted to a pH of 7.4. Rebamipide was tested with a solution adjusted to a pH of 6.0. Other compounds were tested with a solution adjusted to a pH of 7.0.

[3] = reference values; pH upon measurement: rebamipide pH 7.0, telmisartan pH 7.4, cilostazol pH 7.0, aprepitant pH 7, cabozantinib pH 7.4; cited from earlier work
[4] = assay type: physicochemical
Description: The solubility of a poorly soluble compound was measured by further adding a water-soluble macromolecule.
DKS Co. Ltd. • SBE-β-CD . . . MedChemExpress LLC • HP-β-CD . . . Fujifilm Wako Pure Chemical

Row | Compound | Solubility ratio of solvent with respect to buffer solution Ethanol/buffer solution ([1]; 25° C.) | Solubility ratio of solvent with respect to buffer solution PEG400/buffer solution ([1]; 25° C.) | Solubility ratio of solvent with respect to buffer solution PG/buffer solution ([1]; 25° C.) | Solubility scale factor at 5° C. 30% PEG 4000/10% poloxamer 407 [2] | Solubility scale factor at 15° C. 30% PEG 4000/10% poloxamer 407 [2] | Log P [3] | effect of the addition on solubility of celecoxib in PEG/poloxamer composition [4] | other results
1 | O=C(NC(Cc1cc(=O)[nH]c2ccccc12)C(=O)O)c1ccc(Cl)cc1 (stereo not shown) [Rebamipide] | 2.67 | 5.41 | 4.88 | 1.13 | 1.07 | −0.22 | – | Solubility, Ethanol ([1]; 25° C.): 0.06615%; Solubility, Buffer solution ([1]; 25° C., phosphate buffer adjusted to pH 6.0 (rebamipide)): 0.02473%; solubilization of compound due to poloxamer 407 by an addition of PEG 4000 [2]: lowest
2 | CC1(C)O[C@@H]2C[C@H]3[C@@H]4C[C@H](F)C5=CC(=O)C=C[C@]5(C)[C@@]4(F)[C@@H](O)C[C@]3(C)[C@]2(C(=O)CO)O1 [Fluocinolone acetonide] | 2685.78 | 1803.78 | 2007.24 | 19.75 | 18.27 | 2.48 | – | Solubility, Ethanol ([1]; 25° C.): 4.635%; Solubility, PG (propylene glycol) ([1]; 25° C.): 3.224%
3 | CCCc1nc2c(C)cc(-c3nc4ccccc4n3C)cc2n1Cc1ccc(-c2ccccc2C(=O)O)cc1 [Telmisartan] | 287.77 | 431.18 | 120.32 | 2.03 | 1.71 | 3.2 | – | –
4 | carboxymethyl cellulose [CMC] | – | – | – | – | – | – | improved solubility overall | effect on dissolution of a poorly soluble compound due to poloxamer 407 and PEG 4000 [4]: tendency to further assist dissolution
5 | O=C1Nc2ccc(Cl)cc2[C@@](C#CC2CC2)(C(F)(F)F)O1 [Efavirenz] | – | – | – | – | – | 5.40 | – | Solubility, PG (propylene glycol) ([1]; 25° C.): 48.3%; Solubility, Buffer solution ([1]; 25° C., phosphate buffer pH 7.0): 0.0007278%; state of the test composition [2]: converted into gel
6 | sulfobutylether-β-cyclodextrin [SBE-β-CD] | – | – | – | – | – | – | improved solubility overall | effect on dissolution of a poorly soluble compound due to poloxamer 407 and PEG 4000 [4]: further improved the dissolution
7 | C[C@@H](O[C@H]1OCCN(Cc2n[nH]c(=O)[nH]2)[C@H]1c1ccc(F)cc1)c1cc(C(F)(F)F)cc(C(F)(F)F)c1 [Aprepitant] | 129308.39 | 60601.21 | 43995.44 | 1377.77 | 236.00 | 4.8 ± 0.1 | – | Solubility, Ethanol [1]: 2.483%
8 | hydroxypropyl-β-cyclodextrin [HP-β-CD] | – | – | – | – | – | – | hardly improved the solubility | –
9 | O=C1CCc2cc(OCCCCc3nnnn3C3CCCCC3)ccc2N1 [Cilostazol] | 761.36 | 1146.93 | 761.23 | 8.97 | 10.22 | 2.76 | – | Solubility, PEG400 ([1]; 25° C.): 0.4342%
10 | COc1cc2nccc(Oc3ccc(NC(=O)C4(C(=O)Nc5ccc(F)cc5)CC4)cc3)c2cc1OC [Cabozantinib] | 1949439.39 | 25935652.78 | 1213400.25 | 288.38 | 74.57 | 3.92 | – | –
